One experiment deals with Mu-type opioid receptor (Rattus norvegicus, UniProt P33535).
Experiment [1] has as its target Kappa-type opioid receptor (Homo sapiens, UniProt P41145).

Chain of Kappa-type opioid receptor (P41145 whole entry): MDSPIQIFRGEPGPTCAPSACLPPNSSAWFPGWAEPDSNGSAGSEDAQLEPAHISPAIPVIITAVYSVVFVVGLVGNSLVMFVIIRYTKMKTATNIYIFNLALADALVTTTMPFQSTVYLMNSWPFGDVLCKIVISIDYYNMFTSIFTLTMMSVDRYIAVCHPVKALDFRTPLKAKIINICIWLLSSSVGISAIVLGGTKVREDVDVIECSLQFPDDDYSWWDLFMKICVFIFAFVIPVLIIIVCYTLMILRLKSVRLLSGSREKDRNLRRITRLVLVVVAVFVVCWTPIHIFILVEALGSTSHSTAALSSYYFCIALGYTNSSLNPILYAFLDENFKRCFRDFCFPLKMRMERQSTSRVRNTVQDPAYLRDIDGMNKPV
Chain of Mu-type opioid receptor (P33535 whole entry): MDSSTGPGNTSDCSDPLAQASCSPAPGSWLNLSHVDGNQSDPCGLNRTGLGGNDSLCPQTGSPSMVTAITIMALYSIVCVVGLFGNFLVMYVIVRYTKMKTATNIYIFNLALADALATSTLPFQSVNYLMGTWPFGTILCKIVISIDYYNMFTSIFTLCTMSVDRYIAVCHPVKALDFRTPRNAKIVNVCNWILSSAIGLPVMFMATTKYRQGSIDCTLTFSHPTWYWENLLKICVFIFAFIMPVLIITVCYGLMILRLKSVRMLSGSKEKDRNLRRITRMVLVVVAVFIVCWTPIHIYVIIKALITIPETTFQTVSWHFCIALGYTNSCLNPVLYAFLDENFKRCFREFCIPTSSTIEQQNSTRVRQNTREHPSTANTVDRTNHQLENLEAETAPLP

By Ki is commonly meant the dissociation constant of the complex between target and ligand, obtained from inhibition or displacement. Read a high Ki as lower affinity. `CN(C(=O)C=Cc1ccoc1)C1CCC2(O)C3Cc4ccc(O)c5c4C2(CCN3CC2CC2)C1O5` (configuration not stated) [CAS_213055] showed an inhibitory constant (Ki) on Mu-type opioid receptor of 5.2 nM. As to `COC(=O)C12CN(C)CC(C(=O)OC)(C1=O)C(c1cccc(F)c1)N(C)C2c1cccc(F)c1` (configuration not stated), the Ki in experiment [1] stood at 248 nM.

Source of the values: BindingDB's records for doi:10.1124/jpet.104.073668 (Temple University, 2005).
